Consider 6 compounds from patent US8927500B2, “Peptidomimetic macrocycles” (Aileron Therapeutics, Inc., priority 2012, dated 2015).

Where two headings read alike, the source gives them in different places. Where a SMILES comes first, the peptide text is derived from it. Bridges are numbered along the chain shown (N, C = ends). [ ]: non-standard residue; d: D form. R8 = C=CCCCCCC[C@@](C)(N)C(=O)O; Cba = N[C@@H](CC1CCC1)C(=O)O; S5 = C=CCCC[C@](C)(N)C(=O)O; Nle = CCCC[C@H](N)C(=O)O; Ac3c = NC1(C(=O)O)CC1; Aib = CC(C)(N)C(=O)O

In test [1] the target is T1, MDMX (Homo sapiens, UniProt O15151).
T1 sequence (O15151 1-125): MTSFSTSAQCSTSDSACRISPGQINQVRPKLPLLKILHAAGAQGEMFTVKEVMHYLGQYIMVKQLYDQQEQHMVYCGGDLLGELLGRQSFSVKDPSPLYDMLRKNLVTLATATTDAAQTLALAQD
Nature of the test: Competitive fluorescence polarization assay for MDMX. Type of test: binding. The note with it: competitive FP assay; for IC50: read-out: IC50 (MDMX). Background: Polarisation of emitted light reports the rotation of a fluorescent probe.

In test [2] the target is MDM2 (Homo sapiens, UniProt Q00987). Nature of the test: Competitive fluorescence polarization assay for MDM2. It counts as binding. The note with it: competitive FP assay, MDM2; for IC50: read-out: IC50 (MDM2).
MDM2, sequence (Q00987 1-125): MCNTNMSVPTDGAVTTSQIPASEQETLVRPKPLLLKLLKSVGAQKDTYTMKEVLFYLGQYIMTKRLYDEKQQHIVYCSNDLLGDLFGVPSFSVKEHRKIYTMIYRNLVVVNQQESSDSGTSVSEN

`CC(=O)N[C@@H](CC(C)C)C(=O)N[C@H](C(=O)N[C@@H](Cc1ccccc1)C(=O)N[C@]1(C)CCCCCCC=CCCC[C@@](C)(C(=O)N[C@@H](C)C(=O)N[C@@H](C)C(=O)N[C@@H](C)C(=O)N[C@@H](C)C(=O)N[C@@H](C)C(=O)N[C@H](C)C(N)=O)NC(=O)[C@H](CC(C)C)NC(=O)[C@H](CC(N)=O)NC(=O)[C@H](C)NC(=O)[C@H](Cc2c[nH]c3ccccc23)NC(=O)[C@H](Cc2ccc(O)cc2)NC(=O)[C@H](CCC(=O)O)NC1=O)[C@@H](C)O` [compound 611] (Ac-LTF[R8]EYWANL[S5]AAAAA[dA]-NH2; staple 4-11): the figures for the Ki in test [1] (read-out: Ki (MDMX)) and in test [2] (read-out: Ki (MDM2)) were 10 to 100 nM and < 10 nM, respectively.
Regarding `CC(=O)N[C@@H](CC(C)C)C(=O)N[C@H](C(=O)N[C@@H](Cc1ccccc1)C(=O)N[C@]1(C)CCCCCCC=CCCC[C@@](C)(C(=O)N[C@@H](C)C(=O)N[C@@H](C)C(=O)N[C@@H](C)C(=O)N[C@@H](C)C(=O)N[C@@H](C)C(=O)N[C@H](C)C(N)=O)NC(=O)[C@H](CC(C)C)NC(=O)[C@H](CCC(N)=O)NC(=O)C(C)(C)NC(=O)[C@H](Cc2c[nH]c3ccccc23)NC(=O)[C@H](Cc2ccc(O)cc2)NC(=O)[C@H](CCC(=O)O)NC1=O)[C@@H](C)O` [compound 561] (Ac-LTF[R8]EYW[Aib]QL[S5]AAAAA[dA]-NH2; staple 4-11), the Ki (in general, the equilibrium dissociation constant of an inhibitor or competing ligand from its target) in test [1] (Ki (MDMX)) was 10 to 100 nM; in test [2] (Ki (MDM2)), < 10 nM.
The like results for `CC(=O)N[C@@H](CCCNC(=N)N)C(=O)N[C@H](C(=O)N[C@@H](Cc1ccccc1)C(=O)N[C@]1(C)CCCCCCC=CCCC[C@@](C)(C(=O)N[C@@H](C)C(=O)N[C@@H](C)C(=O)N[C@@H](C)C(=O)N[C@@H](C)C(=O)N[C@@H](C)C(=O)N[C@H](C)C(N)=O)NC(=O)[C@H](CC(C)C)NC(=O)[C@H](CCC(N)=O)NC(=O)[C@H](C)NC(=O)[C@H](Cc2c[nH]c3ccccc23)NC(=O)[C@H](Cc2ccc(O)cc2)NC(=O)[C@H](CCC(=O)O)NC1=O)[C@@H](C)O` [compound 559] (Ac-RTF[R8]EYWAQL[S5]AAAAA[dA]-NH2; staple 4-11) were, in that order, 10 to 100 nM and 10 to 100 nM.
Turning to `CCCC[C@H](NC(=O)[C@H](C)NC(=O)[C@H](C)NC(=O)[C@]1(C)CCCC=CCCCCCC[C@@](C)(NC(=O)[C@H](Cc2ccccc2)NC(C)=O)C(=O)N[C@@H](C)C(=O)N[C@@H](Cc2ccc(O)cc2)C(=O)N[C@@H](Cc2c[nH]c3ccccc23)C(=O)N[C@@H](CCC(=O)O)C(=O)NC2(CC2)C(=O)N[C@@H](CC(C)C)C(=O)N1)C(N)=O` [compound 14] (Ac-F[R8]AYWE[Ac3c]L[S5]AA[Nle]-NH2; staple 2-9), the IC50 in test [1] and in test [2] was 10 to 100 nM throughout. Further, the Ki in test [1] (read-out: Ki (MDMX)) and in test [2] (read-out: Ki (MDM2)) was < 10 nM each time.
`CCCC[C@H](NC(=O)[C@H](C)NC(=O)[C@H](C)NC(=O)[C@]1(C)CCCC=CCCCCCC[C@@](C)(NC(=O)[C@H](Cc2ccccc2)NC(=O)[C@@H](NC(=O)[C@H](CC(C)C)NC(C)=O)[C@@H](C)O)C(=O)N[C@@H](C)C(=O)N[C@@H](Cc2ccc(O)cc2)C(=O)N[C@@H](Cc2c[nH]c3ccccc23)C(=O)N[C@@H](C)C(=O)N[C@@H](CCC(N)=O)C(=O)N[C@@H](CC2CCC2)C(=O)N1)C(=O)N[C@@H](C)C(N)=O` [compound 236] (Ac-LTF[R8]AYWAQ[Cba][S5]AA[Nle]A-NH2; staple 4-11): the IC50 (commonly the midpoint of a concentration-inhibition curve) was 100 to 1000 nM in test [1] and 10 to 100 nM in test [2]. The Ki in test [1] (read-out: Ki (MDMX)) was 10 to 100 nM; in test [2] (read-out: Ki (MDM2)), < 10 nM.
For `CC(=O)N[C@@H](CC(C)C)C(=O)N[C@H](C(=O)N[C@@H](Cc1ccccc1)C(=O)N[C@]1(C)CCCCCCC=CCCC[C@@](C)(C(=O)N[C@@H](CO)C(=O)N[C@@H](C)C(=O)N[C@@H](CCCNC(=N)N)C(N)=O)NC(=O)[C@H](CC2CCC2)NC(=O)[C@H](CCC(N)=O)NC(=O)[C@H](C)NC(=O)[C@H](Cc2c[nH]c3ccccc23)NC(=O)[C@H](Cc2ccc(O)cc2)NC(=O)[C@H](CCC(=O)O)NC1=O)[C@@H](C)O` [compound 366] (Ac-LTF[R8]EYWAQ[Cba][S5]SAR-NH2; staple 4-11), the IC50 in test [1] and in test [2] was 10 to 100 nM in each case. Further, the Ki in test [1] (read-out: Ki (MDMX)) was 10 to 100 nM; in test [2] (read-out: Ki (MDM2)), < 10 nM.
